Patent US9403798B2, “Triazinone compound and T-type calcium channel inhibitor” (NISSAN CHEMICAL INDUSTRIES, LTD., priority 2012, dated 2016)

What follows are compounds tested against T1, Human T-type calcium channel (Cav 3.2) (Homo sapiens, UniProt O95180) (assay: Calcium Influx Inhibition Assay). Details: Human T-type calcium channel (Cav 3.2) expressing HEK293 cells, FLIPR Calcium 4 fluorescence.
T1 construct: Edward Perez-Reyes, University of Virginia, USA; host or cells: HEK293
Type: cell-based
Procedure: 1. Calcium Influx Inhibition Assay
Human T-type calcium channel (Cav 3.2) expressing HEK293 cells were obtained from Prof. Edward Perez-Reyes, University of Virginia, USA. The calcium-sensitive fluorescent dye used was FLIPR Calcium 4 Assay Kit (Molecular Devices). To a black 96-well plate with a clear bottom coated with type I collagen, the human T-type calcium channel (Cav 3.2) expressing HEK293 cells were seeded and cultured overnight, and the culture medium was removed. A solution of the calcium-sensitive fluorescent dye was added, and the plate was incubated at 37° C. in an atmosphere of 5% carbon dioxide for 30 minutes. To the plate, a diluted solution of a compound was added, and the whole was further incubated at 37° C. in an atmosphere of 5% carbon dioxide for 30 minutes. While fluorescence was continuously analyzed from the bottom with a FlexStation 3 (Molecular Devices), a calcium solution was added. […] From the rise in the fluorescence from the base line, the inhibition percentage was calculated. The logarithms of compound concentrations were plotted with respect to the inhibition activities to give an IC50 value.

T1 sequence (O95180 whole entry): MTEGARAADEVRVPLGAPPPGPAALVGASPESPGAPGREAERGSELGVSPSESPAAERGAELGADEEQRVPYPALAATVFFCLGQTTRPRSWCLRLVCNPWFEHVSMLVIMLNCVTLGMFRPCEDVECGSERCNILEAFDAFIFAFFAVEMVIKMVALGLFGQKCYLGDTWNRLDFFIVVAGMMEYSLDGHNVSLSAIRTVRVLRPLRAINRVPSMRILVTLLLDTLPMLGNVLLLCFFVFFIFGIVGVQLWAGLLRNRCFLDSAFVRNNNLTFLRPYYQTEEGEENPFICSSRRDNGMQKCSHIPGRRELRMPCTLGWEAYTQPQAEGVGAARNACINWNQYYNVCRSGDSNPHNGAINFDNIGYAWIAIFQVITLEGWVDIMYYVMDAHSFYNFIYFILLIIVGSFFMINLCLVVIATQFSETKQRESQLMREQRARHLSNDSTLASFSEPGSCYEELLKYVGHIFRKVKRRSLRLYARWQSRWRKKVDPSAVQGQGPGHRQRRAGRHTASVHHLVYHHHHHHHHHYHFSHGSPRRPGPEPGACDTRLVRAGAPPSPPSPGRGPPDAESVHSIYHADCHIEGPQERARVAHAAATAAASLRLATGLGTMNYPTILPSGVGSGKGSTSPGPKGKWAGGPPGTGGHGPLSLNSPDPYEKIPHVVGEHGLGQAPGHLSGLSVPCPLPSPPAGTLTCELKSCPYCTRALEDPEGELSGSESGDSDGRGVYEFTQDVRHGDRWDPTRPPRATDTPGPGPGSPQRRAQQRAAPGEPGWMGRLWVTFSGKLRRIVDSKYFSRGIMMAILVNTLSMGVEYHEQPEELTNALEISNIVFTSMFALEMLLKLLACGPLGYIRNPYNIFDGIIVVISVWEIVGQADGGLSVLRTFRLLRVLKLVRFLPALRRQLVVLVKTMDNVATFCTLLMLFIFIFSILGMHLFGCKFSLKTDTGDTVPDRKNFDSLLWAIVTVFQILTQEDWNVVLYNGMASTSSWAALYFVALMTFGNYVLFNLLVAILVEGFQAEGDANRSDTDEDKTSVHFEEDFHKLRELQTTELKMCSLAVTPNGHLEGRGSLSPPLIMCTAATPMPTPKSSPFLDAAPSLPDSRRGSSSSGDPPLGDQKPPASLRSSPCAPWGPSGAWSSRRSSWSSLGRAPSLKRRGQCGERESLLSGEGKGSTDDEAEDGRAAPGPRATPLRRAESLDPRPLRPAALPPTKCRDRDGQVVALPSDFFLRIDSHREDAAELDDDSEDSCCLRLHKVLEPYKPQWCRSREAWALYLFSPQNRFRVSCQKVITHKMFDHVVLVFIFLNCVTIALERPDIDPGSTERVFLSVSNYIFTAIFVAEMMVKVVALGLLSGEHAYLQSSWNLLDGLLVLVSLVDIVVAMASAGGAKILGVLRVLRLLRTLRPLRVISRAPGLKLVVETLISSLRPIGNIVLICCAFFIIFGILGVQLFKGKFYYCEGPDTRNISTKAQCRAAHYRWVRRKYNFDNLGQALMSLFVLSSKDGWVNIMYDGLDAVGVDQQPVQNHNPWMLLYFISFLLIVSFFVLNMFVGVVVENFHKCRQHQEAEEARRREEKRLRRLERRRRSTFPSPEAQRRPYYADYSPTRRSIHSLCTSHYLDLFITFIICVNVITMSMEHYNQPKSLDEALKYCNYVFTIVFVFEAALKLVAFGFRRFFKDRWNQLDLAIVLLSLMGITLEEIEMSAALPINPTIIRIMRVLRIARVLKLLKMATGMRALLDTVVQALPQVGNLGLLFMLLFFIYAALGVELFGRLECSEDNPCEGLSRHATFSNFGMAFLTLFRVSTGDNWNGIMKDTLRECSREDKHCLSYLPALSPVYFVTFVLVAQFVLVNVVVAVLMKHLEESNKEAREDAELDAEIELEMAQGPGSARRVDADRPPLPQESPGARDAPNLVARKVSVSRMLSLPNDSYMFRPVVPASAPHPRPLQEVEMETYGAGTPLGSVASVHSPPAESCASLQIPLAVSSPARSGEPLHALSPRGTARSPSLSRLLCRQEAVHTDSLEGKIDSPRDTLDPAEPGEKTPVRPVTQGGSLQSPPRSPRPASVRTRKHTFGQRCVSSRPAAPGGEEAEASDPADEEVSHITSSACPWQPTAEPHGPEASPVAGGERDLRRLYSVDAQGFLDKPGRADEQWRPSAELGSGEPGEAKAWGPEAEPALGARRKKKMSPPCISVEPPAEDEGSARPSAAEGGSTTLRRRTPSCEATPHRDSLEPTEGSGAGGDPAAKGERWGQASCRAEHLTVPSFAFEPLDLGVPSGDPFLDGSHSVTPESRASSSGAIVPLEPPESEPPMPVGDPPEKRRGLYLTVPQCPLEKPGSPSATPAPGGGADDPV

Compound	IC50
CC(F)(F)c1ccc(Cn2cnc(N3CC=C(c4ccc(F)cc4)[C@@H](O)C3)nc2=O)s1 [compound 207]	7.5 nM
O=c1nc(N2CC=C(c3ccc(F)cc3)[C@@H](O)C2)ncn1Cc1ccc(OS(=O)(=O)C(F)(F)F)nc1 [compound 208]	6.2 nM
O=c1nc(N2CC=C(c3ccc(F)cc3)[C@@H](O)C2)ncn1Cc1ccc(OS(=O)(=O)C(F)(F)F)cc1 [compound 211]	2 nM
Cc1nc(N2CC=C(c3ccc(F)cc3)[C@@H](O)C2)nc(=O)n1Cc1ccc(OS(=O)(=O)C(F)(F)F)cc1 [compound 213]	3.4 nM
Cc1nc(N2CC=C(c3ccc(F)cc3)[C@@H](O)C2)nc(=O)n1Cc1cnc(C(F)(F)F)s1 [compound 219]	5.5 nM
O=c1nc(N[C@@H]2CCN(c3ccc(F)cc3)C2)ncn1Cc1ccc(C(F)(F)F)s1 [compound 224]	57 nM
O=c1nc(N2CC=C(c3ccsc3)CC2)ncn1Cc1ccc(C(F)(F)F)s1 [compound 230]	22 nM
O=c1nc(N2CC=C(c3ccc(Cl)cn3)CC2)ncn1Cc1ccc(C(F)(F)F)s1 [compound 256]	42 nM
O=c1nc(N2CC=C(c3cnn(CC(F)(F)F)c3)CC2)ncn1Cc1ccc(C(F)(F)F)s1 [compound 259]	600 nM
O=c1nc(N2CC=C(c3cc4ccccc4o3)CC2)ncn1Cc1ccc(C(F)(F)F)s1 [compound 260]	140 nM
O=c1nc(N2CC=C(c3ccc(F)c(F)c3)CC2)ncn1Cc1ccc(C(F)(F)F)s1 [compound 264]	28 nM
O=c1nc(N2CC=C(c3cncs3)CC2)ncn1Cc1ccc(C(F)(F)F)s1 [compound 265]	570 nM
O=C1CCc2cc(C3=CCN(c4ncn(Cc5ccc(C(F)(F)F)s5)c(=O)n4)CC3)ccc21 [compound 269]	75 nM
COc1cncc(C2=CCN(c3ncn(Cc4ccc(C(F)(F)F)s4)c(=O)n3)CC2)n1 [compound 272]	350 nM
Cc1cc(C2=CCN(c3ncn(Cc4ccc(C(F)(F)F)s4)c(=O)n3)CC2)sn1 [compound 275]	30 nM
N#Cc1cc(C2=CCN(c3ncn(Cc4ccc(C(F)(F)F)s4)c(=O)n3)CC2)ccc1F [compound 278]	45 nM
O=c1nc(N2CC=C(c3cn4c(n3)CCC4)CC2)ncn1Cc1ccc(C(F)(F)F)s1 [compound 283]	510 nM

Compound	IC50
O=c1nc(N2CC=C(c3cc(F)cc(F)c3)CC2)ncn1Cc1ccc(C(F)(F)F)s1 [compound 285]	56 nM
O=c1nc(N2CC=C(c3ccc4ocnc4c3)CC2)ncn1Cc1ccc(C(F)(F)F)s1 [compound 295]	180 nM
COc1ccc(C2=CCN(c3ncn(Cc4ccc(C(F)(F)F)s4)c(=O)n3)CC2)s1 [compound 300]	160 nM
O=c1nc(N2CC=C(c3ccc(F)c(O)c3)CC2)ncn1Cc1ccc(C(F)(F)F)s1 [compound 304]	64 nM
O=c1nc(N2CC3C(C2)C3c2ccc(F)cc2)ncn1Cc1ccc(C(F)(F)F)s1 (centres unmarked) [compound 311]	160 nM
CC(C)(C)OC(=O)N1C[C@@H](CNc2ncn(Cc3ccc(C(F)(F)F)s3)c(=O)n2)[C@H](c2ccc(F)cc2)C1 [compound 312]	550 nM
CS(=O)(=O)NC1CN(c2ncn(Cc3ccc(C(F)(F)F)s3)c(=O)n2)CC=C1c1ccc(F)cc1 (centres unmarked) [compound 314]	46 nM
O=c1nc(N2CC=C(c3ccc(F)cc3)[C@@H](O)C2)ncn1Cc1ccc(C(F)(F)F)s1 [compound 315]	0.46 nM
O=c1nc(N2CC=C(c3ccc(F)cc3)[C@H](O)C2)ncn1Cc1ccc(C(F)(F)F)s1 [compound 316]	2.3 nM
CC(=O)NC1CN(c2ncn(Cc3ccc(C(F)(F)F)s3)c(=O)n2)CC=C1c1ccc(F)cc1 (centres unmarked) [compound 317]	56 nM
O=c1nc(N[C@H]2C[C@@H](c3ccc(F)cc3)C2)ncn1Cc1ccc(C(F)(F)F)s1 [compound 318]	33 nM
NC1CN(c2ncn(Cc3ccc(C(F)(F)F)s3)c(=O)n2)CC=C1c1ccc(F)cc1 (centres unmarked) [compound 321]	3.6 nM
O=c1nc(N2CC=C(c3ccc(F)c(Cl)c3)[C@@H](O)C2)ncn1Cc1ccc(C(F)(F)F)s1 [compound 326]	1.9 nM
Cc1csc(C2=CCN(c3ncn(Cc4ccc(C(F)(F)F)s4)c(=O)n3)C[C@@H]2O)c1 [compound 327]	4 nM
COc1nc(C2=CCN(c3ncn(Cc4ccc(C(F)(F)F)s4)c(=O)n3)C[C@@H]2O)ccc1Cl [compound 329]	4.8 nM
Cc1cc(C2=CCN(c3ncn(Cc4ccc(C(F)(F)F)s4)c(=O)n3)C[C@@H]2O)cs1 [compound 333]	1.8 nM
Cc1nc(N2CC3CCC(C2)N3c2ccc(F)cc2)nc(=O)n1Cc1ccc(C(F)(F)F)s1 [compound 380]	310 nM

More lines, now with the values ahead:

IC50	Compound
13 nM	Cc1nc(N2CC=C(c3ccc(F)cc3)CC2)nc(=O)n1Cc1ccc(C(F)(F)F)s1 [compound 340]
0.94 nM	Cc1nc(N2CC=C(c3ccc(F)cc3)[C@@H](O)C2)nc(=O)n1Cc1ccc(C(F)(F)F)s1 [compound 342]
12 nM	Cc1nc(N2CCN(c3ccc(F)cc3)CC2)nc(=O)n1Cc1ccc(C(F)(F)F)s1 [compound 344]
4.5 nM	Cc1nc(N2CC=C(c3ccc(F)cc3)[C@@H](N)C2)nc(=O)n1Cc1ccc(C(F)(F)F)s1 [compound 348]
1.1 nM	Cc1ccc(C2=CCN(c3nc(C)n(Cc4ccc(C(F)(F)F)s4)c(=O)n3)C[C@@H]2O)cc1F [compound 349]
1.1 nM	Cc1nc(N2CC=C(c3ccc(F)c(Cl)c3)[C@@H](O)C2)nc(=O)n1Cc1ccc(C(F)(F)F)s1 [compound 350]
13 nM	Cc1cc(N2CCN(c3nc(C)n(Cc4ccc(C(F)(F)F)s4)c(=O)n3)CC2)cs1 [compound 357]
83 nM	Cc1nc(N[C@H]2C[C@@H](c3ccc(F)cc3)C2)nc(=O)n1Cc1ccc(C(F)(F)F)s1 [compound 360]
1.5 nM	Cc1csc(C2=CCN(c3nc(C)n(Cc4ccc(C(F)(F)F)s4)c(=O)n3)C[C@@H]2O)c1 [compound 362]
8.7 nM	Cc1ccc(N2CCN(c3nc(C)n(Cc4ccc(C(F)(F)F)s4)c(=O)n3)CC2)cc1 [compound 363]
13 nM	Cc1nc(N2CCN(c3nc(C)n(Cc4ccc(C(F)(F)F)s4)c(=O)n3)CC2)ccc1F [compound 365]
630 nM	Cc1nc(N2CCC3(CCN(c4ccc(F)cc4)C3)CC2)nc(=O)n1Cc1ccc(C(F)(F)F)s1 [compound 370]
410 nM	Cc1nc(N2CCN(c3ccccc3)CC(F)(F)C2)nc(=O)n1Cc1ccc(C(F)(F)F)s1 [compound 377]
54 nM	Cc1nc(N2CC=C(c3ccc(F)cc3)C(CO)C2)nc(=O)n1Cc1ccc(C(F)(F)F)s1 (centres unmarked) [compound 379]
860 nM	Cc1nc(N2CCN(C34CC5CC(CC(C5)C3)C4)CC2)nc(=O)n1Cc1ccc(C(F)(F)F)s1 [compound 382]
89 nM	Cc1nc(Nc2nc(-c3ccc(F)c(F)c3)cs2)nc(=O)n1Cc1ccc(C(F)(F)F)s1 [compound 383]
1.3 nM	Cc1ccc(C2=CCN(c3nc(C)n(Cc4ccc(Br)s4)c(=O)n3)C[C@@H]2O)cc1F [compound 392]

IC50	Compound
1.7 nM	COc1nc(C2=CCN(c3nc(C)n(Cc4ccc(Br)s4)c(=O)n3)C[C@@H]2O)ccc1Cl [compound 395]
4.4 nM	O=c1nc(N2CC=C(c3ccc(F)c(Cl)c3)[C@@H](O)C2)ncn1Cc1ccc(Cl)s1 [compound 400]
2 nM	Cc1nc(N2CC=C(c3ccc(F)cc3)[C@@H](O)C2)nc(=O)n1Cc1ccc(Cl)s1 [compound 403]
6.9 nM	COc1nc(C2=CCN(c3ncn(Cc4ccc(C(C)(C)C)s4)c(=O)n3)C[C@@H]2O)ccc1Cl [compound 413]
16 nM	Cc1nc(C2=CCN(c3ncn(Cc4ccc(C(C)(C)C)s4)c(=O)n3)C[C@@H]2O)ccc1F [compound 415]
40 nM	Cc1cc(F)ccc1C1=CCN(c2nc(C)n(Cc3ccc(C(C)(C)C)s3)c(=O)n2)C[C@@H]1O [compound 423]
5.5 nM	O=c1nc(N2CC=C(c3ccc(F)c(Cl)c3)[C@@H](O)C2)ncn1Cc1cc2c(s1)CCCC2 [compound 428]
160 nM	Cc1cccc(C2=CCN(c3ncn(Cc4cc5c(s4)CCCC5)c(=O)n3)C[C@@H]2O)n1 [compound 430]
330 nM	Cc1cc(N2CCN(c3ncn(Cc4ccc(C(F)(F)F)o4)c(=O)n3)CC2)cs1 [compound 436]
6.9 nM	Cc1nc(N2CC=C(c3ccc(F)cc3)[C@@H](O)C2)nc(=O)n1Cc1ccc(C(F)(F)F)o1 [compound 439]
16 nM	Cc1ccc(C2=CCN(c3nc(C)n(Cc4ccc(OS(=O)(=O)C(F)(F)F)nc4)c(=O)n3)C[C@@H]2O)cc1F [compound 448]
46 nM	COc1nc(C2=CCN(c3nc(C)n(Cc4ccc(OS(=O)(=O)C(F)(F)F)nc4)c(=O)n3)C[C@@H]2O)ccc1Cl [compound 450]
24 nM	Cc1nc(N2CC=C(c3ccc(F)cc3)[C@@H](O)C2)nc(=O)n1C(C)c1ccc(C(F)(F)F)s1 (some centres unmarked) [compound 453]
1.9 nM	Cc1nc(N2CC=C(c3ccc(F)cc3)[C@@H](O)C2)nc(=O)n1Cc1ccc(C(F)(F)C(F)(F)F)s1 [compound 454]
13 nM	CC(=O)OCc1nc(N2CC=C(c3ccc(F)cc3)[C@@H](O)C2)nc(=O)n1Cc1ccc(C(F)(F)F)s1 [compound 457]
61 nM	CCCc1nc(N2CC=C(c3ccc(F)cc3)CC2)nc(=O)n1Cc1ccc(C(F)(F)F)s1 [compound 460]
400 nM	Cc1nc(N2CCN(c3ccc(F)cc3)CC2)nc(=O)n1CC12CC3CC(CC(C3)C1)C2 [compound 461]
